Consider 16 compounds from patent US9371331B2, “Modulators of methyl modifying enzymes, compositions and uses thereof” (Constellation Pharmaceuticals, Inc., priority 2012, dated 2016).

The subject of test [1] is H3K27me3 mark in HeLa cells. As to the kind of experiment: H3K27me3 MSD Hela Assay. Format: cell-based. The following applies: Homo sapiens, read-out: H3K27me3_MSD_HeLa_ (EC50). The procedure:
Trypsinized HeLa cells were counted and diluted in 10% DMEM (Life Technologies, Cat. #10569) to 5000 cells/75 μL. Seventy-five […] of cells were place in each well of a 96-well flat-bottomed plate and incubated at 37° C. for 4 hours. Twenty-five μL of test compound (at various concentrations) was added to the cells and incubation continued at 37° C. for 96 hours. Media was then removed and the cells rinsed once with ice cold PBS. Forty μL of ice-cold MSD Buffer AT (10 mM HEPES, pH 7.9, 5 mM MgCl2, 0.25M sucrose, Benzonase (1:10000), 1% Triton X-100 supplemented with fresh 1× Protease Inhibitor cocktail and 1 mM 4-(2-Aminoethyl)benzenesulfonyl fluoride hydrochloride (AEBSF)) was added to each well and the plates placed on ice for 30 minutes. Ten μL of 5M NaCl was then added to each well and incubation on ice continued for another 15 minutes. The material in each well was suspended pipetting up and down and then transferred to a new 96 well plate. The emptied wells were rinsed with 150 uL ice-cold 20 mM Tris pH 7.5, 1 mM EDTA, 1 mM EGTA, supplemented with fresh 1× Protease Inhibitor cocktail and 1 mM AEBSF (“NO salt NO detergent buffer) and transferred to the respective wells in the new plate. Three hundred μL of NO Salt NO detergent buffer was then added to each well of lysates and the plates frozen at −80° C.
On the same day, an appropriate number of MSD standard bind 96-well plates were coated with 30 μL/well of total H3 capture antibody (Millipore. Cat #MAB3422) at 1 μg/mL concentration in PBS. The antibody solution was evenly distributed first by tapping gently on the sides of the plates and then by shaking the plates for a few minutes at 1000 rpm. Antibody coated plates were stored at 4° C. overnight.
The next day the lysates are thawed to RT. The antibody coated MSD plates are washed 3× with TBS-T (Tris-buffered saline (Fisher Scientific, Cat #BP2471-1)+0.2% Tween-20). One-hundred fifty μL of 5% Blocker A in TBS-T is added to each well. The wells are covered and shaken on a shaker at RT for one hour. The Blocker A step is repeated a second time. After removing the blocker, 25 μL of cell lysate is transferred into each antibody coated well. The plates are shaken for 2 hours at RT, the lysate removed and the plates again washed with Blocker A in TBS-T. Twenty-five μL of appropriate freshly prepared antibody mix (including both primary and secondary antibodies) is added to each well and the plates shaken for 1 hour at RT.
Both H3 antibodies were obtained from Cell Signalling (Cat #s 4499 and 9733). The goat anti-rabbit antibody was obtained from Meso-Scale Discovery (Cat #R32AB-1).
The antibody mix was then removed and the wells washed with Blocker A. One hundred-fifty μL of freshly prepared 1×MSD Read Buffer (Meso-Scale Discovery; Cat #R927C-2) was then added to each well and the plates read on a MSD Sector 2400 Plate Reader.
Data was analyzed using Assay Assistant (Constellation Pharmaceuticals In-house product) and Activity Base (IDBS Ltd, Surrey, UK) template. Data files were imported to Assay Assistant and assay conditions were specified. A unique Analysis ID was created and the data files exported to Activity Base. An analysis template was created on Activity Base to measure dose-dependent inhibition of H3K27me3 mark and cell viability respectively. Readout of DMSO wells were used to normalize the data. Resulting curves were fitted using Activity base software Model 205 (IDBS Ltd. Surrey, UK). The data was checked for quality, validated and integrated in excel format using SARview (IDBS Ltd, Surrey, UK).

For the next test, the target named is Y641N EZH2 (Homo sapiens, UniProt Q15910, Y641N). The experiment in a line: Y641N EZH2 assay: as EZH2 assay, with reconstituted H3K27Me2 oligonucleosomes as substrate. Format: biochemical.
Chain of Y641N EZH2 (Q15910 whole entry Y641N): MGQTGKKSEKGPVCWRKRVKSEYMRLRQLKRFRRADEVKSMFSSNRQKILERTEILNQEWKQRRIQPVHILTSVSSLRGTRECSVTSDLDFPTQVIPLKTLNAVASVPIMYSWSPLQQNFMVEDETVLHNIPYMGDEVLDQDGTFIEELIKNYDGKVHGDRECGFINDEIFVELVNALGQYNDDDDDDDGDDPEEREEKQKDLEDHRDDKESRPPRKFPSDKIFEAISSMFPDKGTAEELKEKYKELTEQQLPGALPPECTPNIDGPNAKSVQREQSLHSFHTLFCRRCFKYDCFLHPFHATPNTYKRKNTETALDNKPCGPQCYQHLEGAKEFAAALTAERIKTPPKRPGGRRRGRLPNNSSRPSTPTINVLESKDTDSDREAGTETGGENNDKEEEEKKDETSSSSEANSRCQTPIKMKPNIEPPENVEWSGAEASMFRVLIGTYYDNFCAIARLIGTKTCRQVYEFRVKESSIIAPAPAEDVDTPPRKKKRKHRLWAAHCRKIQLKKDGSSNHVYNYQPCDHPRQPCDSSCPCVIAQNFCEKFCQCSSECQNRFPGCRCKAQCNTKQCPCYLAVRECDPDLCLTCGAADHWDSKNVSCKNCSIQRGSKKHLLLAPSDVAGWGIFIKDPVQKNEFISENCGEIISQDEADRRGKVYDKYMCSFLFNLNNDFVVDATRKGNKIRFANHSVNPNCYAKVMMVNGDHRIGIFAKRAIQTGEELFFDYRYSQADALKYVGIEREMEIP
Chain of Y641N EZH2 (O75530 whole entry partner): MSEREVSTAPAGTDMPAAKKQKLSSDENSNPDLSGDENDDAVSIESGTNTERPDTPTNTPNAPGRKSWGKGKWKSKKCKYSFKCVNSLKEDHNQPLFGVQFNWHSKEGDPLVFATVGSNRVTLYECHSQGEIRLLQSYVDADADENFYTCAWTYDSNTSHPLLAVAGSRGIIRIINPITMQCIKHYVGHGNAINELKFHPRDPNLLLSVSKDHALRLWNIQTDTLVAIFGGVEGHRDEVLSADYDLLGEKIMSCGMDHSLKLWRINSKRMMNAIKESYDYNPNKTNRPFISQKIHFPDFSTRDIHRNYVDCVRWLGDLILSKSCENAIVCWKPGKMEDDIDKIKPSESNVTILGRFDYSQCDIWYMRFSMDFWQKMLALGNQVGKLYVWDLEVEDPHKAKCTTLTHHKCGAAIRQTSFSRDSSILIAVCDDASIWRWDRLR
Chain of Y641N EZH2 (Q15022 whole entry partner): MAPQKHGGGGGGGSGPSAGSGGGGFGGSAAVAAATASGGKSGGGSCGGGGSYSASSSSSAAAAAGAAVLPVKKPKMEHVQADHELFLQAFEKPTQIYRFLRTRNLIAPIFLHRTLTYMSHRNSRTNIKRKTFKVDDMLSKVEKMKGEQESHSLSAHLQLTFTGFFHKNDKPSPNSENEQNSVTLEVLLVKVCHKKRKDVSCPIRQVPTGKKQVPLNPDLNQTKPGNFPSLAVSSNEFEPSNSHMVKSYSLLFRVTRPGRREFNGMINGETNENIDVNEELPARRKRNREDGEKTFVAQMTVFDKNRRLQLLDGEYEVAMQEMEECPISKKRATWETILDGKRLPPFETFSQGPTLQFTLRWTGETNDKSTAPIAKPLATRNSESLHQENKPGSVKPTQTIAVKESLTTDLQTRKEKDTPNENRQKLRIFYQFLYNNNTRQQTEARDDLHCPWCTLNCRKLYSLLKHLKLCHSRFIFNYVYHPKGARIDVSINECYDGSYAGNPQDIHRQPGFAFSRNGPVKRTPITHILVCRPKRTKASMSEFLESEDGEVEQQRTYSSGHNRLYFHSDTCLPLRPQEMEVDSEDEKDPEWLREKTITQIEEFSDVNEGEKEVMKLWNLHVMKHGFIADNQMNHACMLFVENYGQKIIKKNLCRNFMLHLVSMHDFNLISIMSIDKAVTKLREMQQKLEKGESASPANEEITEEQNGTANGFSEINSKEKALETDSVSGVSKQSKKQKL
The next test addresses EZH2 (rPRC2) (Homo sapiens, UniProt Q15910). As to the kind of experiment: EZH2 assay: rPRC2, biotinylated oligonucleosomes, 3H SAM methyl transfer (FlashPlate scintillation). Format: biochemical. The conditions noted are these: biotinylated oligonucleosome substrate.
Where [2] appears, read: Y641N EZH2 IC50, Y641N mutant EZH2, H3K27Me2 oligonucleosome substrate.
[3] abbreviates: EZH2 IC50, wild-type EZH2 (rPRC2).
Setting [4] is: Y641N mutant EZH2, H3K27Me2 oligonucleosome substrate, read-out: Y641N EZH2 IC50.
Where [5] appears, read: wild-type EZH2 (rPRC2), read-out: EZH2 IC50.

Where two headings read alike, the source gives them in different places.

Chain of EZH2 (rPRC2) (Q15910 whole entry): as the sequence (Q15910 whole entry Y641N) above, with N641Y counted along it
Chain of EZH2 (rPRC2) (O75530 whole entry partner): as the sequence (O75530 whole entry partner) above
Chain of EZH2 (rPRC2) (Q15022 whole entry partner): as the sequence (Q15022 whole entry partner) above

As for `CCOCC(C)n1c(C)c(C(=O)NCc2c(OC)cc(C)[nH]c2=O)c2cccnc21` (racemic) [Compound 212, (±)-1-(1-ethoxypropan-2-yl)-N-((4-methoxy-6-methyl-2-oxo-1,2-dihydropyridin-3-yl)methyl)-2-methyl-1H-pyrrolo[2,3-b]pyridine-3-carboxamide], in test [1] (HeLa, 96 h), the EC50 lay within 400 to 2000 nM. For the same compound, the IC50 was 100 to 1000 nM against Y641N EZH2 (setting [2]) and below 100 nM at EZH2 (rPRC2) (setting [3]).

For `COc1cncc(C(C)n2c(C)c(C(=O)NCc3c(C)cc(C)[nH]c3=O)c3cccnc32)c1` (racemic) [Compound 215, (±)-N-((4,6-dimethyl-2-oxo-1,2-dihydropyridin-3-yl)methyl)-1-(1-(5-methoxypyridin-3-yl)ethyl)-2-methyl-1H-pyrrolo[2,3-b]pyridine-3-carboxamide], the EC50 in test [1] (HeLa, 96 h) is 2000 to 10000 nM. For the same compound, the concentration for half-maximal inhibition (IC50) lay within 1000 to 10000 nM on Y641N EZH2 (setting [2]) and 100 to 1000 nM against EZH2 (rPRC2) (setting [3]).

Consider `Cc1cc(C)c(CNC(=O)c2c(C)n(C(C)c3ccn(C)c(=O)c3)c3ccccc23)c(=O)[nH]1` (racemic) [Compound 222, (±)-N-((4,6-dimethyl-2-oxo-1,2-dihydropyridin-3-yl)methyl)-2-methyl-1-(1-(1-methyl-2-oxo-1,2-dihydropyridin-4-yl)ethyl)-1H-indole-3-carboxamide], for which the concentration giving a half-maximal response (EC50) in test [1] (HeLa, 96 h) is above 10000 nM. For the same compound, the IC50 against Y641N EZH2 (setting [2]) and on EZH2 (rPRC2) (setting [3]) was 100 to 1000 nM throughout.

In the case of `COCC(C)n1c(C)c(C(=O)NCc2c(OC)cc(C)[nH]c2=O)c2cc(F)ccc21` (racemic) [Compound 230, (±)-5-fluoro-N-((4-methoxy-6-methyl-2-oxo-1,2-dihydropyridin-3-yl)methyl)-1-(1-methoxypropan-2-yl)-2-methyl-1H-indole-3-carboxamide], in test [1] (HeLa, 96 h), the concentration giving a half-maximal response (EC50) fell in the range of 400 to 2000 nM. Moreover, the IC50 against Y641N EZH2 (setting [2]) is 100 to 1000 nM; at EZH2 (rPRC2) (setting [3]), below 100 nM.

Turning to `COCC(C)n1c(C)c(C(=O)NCc2c(OC)cc(C)[nH]c2=O)c2ccc(F)cc21` (racemic) [Compound 231, (±)-6-fluoro-N-((4-methoxy-6-methyl-2-oxo-1,2-dihydropyridin-3-yl)methyl)-1-(1-methoxypropan-2-yl)-2-methyl-1H-indole-3-carboxamide], the EC50 in test [1] (HeLa, 96 h) lay in the range of 400 to 2000 nM. The 50% inhibitory concentration (IC50) on Y641N EZH2 (setting [2]) is 100 to 1000 nM; at EZH2 (rPRC2) (setting [3]), below 100 nM.

Take `Cc1cc(C)c(CNC(=O)c2c(C)n(C(C)Cn3cnc4ccccc43)c3ncccc23)c(=O)[nH]1` (racemic) [Compound 238, (±)-1-(1-(1H-benzo[d]imidazol-1-yl)propan-2-yl)-N-((4,6-dimethyl-2-oxo-1,2-dihydropyridin-3-yl)methyl)-2-methyl-1H-pyrrolo[2,3-b]pyridine-3-carboxamide]: the 50% effective concentration (EC50) in test [1] (HeLa cells, MSD, 96 hours) was in the range of 2000 to 10000 nM. Also, the IC50 on Y641N EZH2 (setting [4]) is 1000 to 10000 nM; at EZH2 (rPRC2) (setting [5]), 100 to 1000 nM.

For the compound `COc1cc(C)[nH]c(=O)c1CNC(=O)c1c(C)n(C(C)c2cccc(C#N)c2)c2ncccc12` (racemic) [Compound 239, (±)-1-(1-(3-cyanophenyl)ethyl)-N-((4-methoxy-6-methyl-2-oxo-1,2-dihydropyridin-3-yl)methyl)-2-methyl-1H-pyrrolo[2,3-b]pyridine-3-carboxamide], in test [1] (HeLa, 96 h), the concentration for a half-maximal effect (EC50) lay within 400 to 2000 nM. In addition, the half-maximal inhibitory concentration (IC50) against Y641N EZH2 (setting [2]) and at EZH2 (rPRC2) (setting [3]) was below 100 nM each time.

On to `COCC(C)n1c(C)c(C(=O)NCc2c(C)cc(C)[nH]c2=O)c2ccncc21` (racemic) [Compound 240, (±)-N-((4,6-dimethyl-2-oxo-1,2-dihydropyridin-3-yl)methyl)-1-(1-methoxypropan-2-yl)-2-methyl-1H-pyrrolo[2,3-c]pyridine-3-carboxamide], for which, in test [1] (HeLa, 96 h), the EC50 was 2000 to 10000 nM. Besides, the IC50 against Y641N EZH2 (setting [2]) is 100 to 1000 nM; on EZH2 (rPRC2) (setting [3]), below 100 nM.

Take `COc1cc(C)[nH]c(=O)c1CNC(=O)c1c(C)n(C(C)c2cccc(C(N)=O)c2)c2ncccc12` (racemic) [Compound 242, (±)-1-(1-(3-carbamoylphenyl)ethyl)-N-((4-methoxy-6-methyl-2-oxo-1,2-dihydropyridin-3-yl)methyl)-2-methyl-1H-pyrrolo[2,3-b]pyridine-3-carboxamide]: the EC50 in test [1] (HeLa cells, MSD, 96 hours) lay in the range of 2000 to 10000 nM. For the same compound, the IC50 at Y641N EZH2 (setting [4]) was 100 to 1000 nM; on EZH2 (rPRC2) (setting [5]) it was below 100 nM.

In the case of `COc1cc(C)[nH]c(=O)c1CNC(=O)c1c(C)n(C(C)c2ccccc2)c2cnccc12` (racemic) [Compound 243, (±)-N-((4-methoxy-6-methyl-2-oxo-1,2-dihydropyridin-3-yl)methyl)-2-methyl-1-(1-phenylethyl)-1H-pyrrolo[2,3-c]pyridine-3-carboxamide], in test [1] (HeLa, 96 h), the 50% effective concentration (EC50) fell in the range of 2000 to 10000 nM. Also, the 50% inhibitory concentration (IC50) against Y641N EZH2 (setting [2]) was 100 to 1000 nM; at EZH2 (rPRC2) (setting [3]) it was below 100 nM.

`Cc1cc(C)c(CNC(=O)c2c(C)n(C(C)CS(C)(=O)=O)c3ncccc23)c(=O)[nH]1` (racemic) [Compound 250, (±)-N-((4,6-dimethyl-2-oxo-1,2-dihydropyridin-3-yl)methyl)-2-methyl-1-(1-(methylsulfonyl)propan-2-yl)-1H-pyrrolo[2,3-b]pyridine-3-carboxamide]: the concentration for a half-maximal effect (EC50) in test [1] (HeLa cells, MSD, 96 hours) lay in the range of 2000 to 10000 nM. For the same compound, the IC50 on Y641N EZH2 (setting [4]) was 100 to 1000 nM; on EZH2 (rPRC2) (setting [5]), below 100 nM.

Regarding `COCC(C)n1c(C)c(C(=O)NCc2c(C)cc(C)[nH]c2=O)c2scnc21` (racemic) [Compound 254, (±)-N-((4,6-dimethyl-2-oxo-1,2-dihydropyridin-3-yl)methyl)-4-(1-methoxypropan-2-yl)-5-methyl-4H-pyrrolo[2,3-d]thiazole-6-carboxamide], the half-maximal effective concentration (EC50) in test [1] (HeLa cells, MSD, 96 hours) lay in the range of 2000 to 10000 nM. Besides, the IC50 at Y641N EZH2 (setting [4]) and on EZH2 (rPRC2) (setting [5]) was 100 to 1000 nM each time.

As for `COc1cc(C)[nH]c(=O)c1CNC(=O)c1c(C)n(C(C)C2(C)COC2)c2ccccc12` (racemic) [Compound 291], the EC50 in test [1] (HeLa, 96 h) is 400 to 2000 nM. For the same compound, the IC50 was 100 to 1000 nM against Y641N EZH2 (setting [2]) and below 100 nM on EZH2 (rPRC2) (setting [3]).

`Cc1cc(C)c(CNC(=O)c2c(C)n(C(C)c3ccccc3)c3ncccc23)c(=O)[nH]1` (single isomer, unassigned) [Compound 116, N-((4,6-dimethyl-2-oxo-1,2-dihydropyridin-3-yl)methyl)-2-methyl-1-(1-phenylethyl)-1H-pyrrolo[2,3-b]pyridine-3-carboxamide]: in test [1] (HeLa, 96 h), the concentration giving a half-maximal response (EC50) lay within 400 to 2000 nM. The concentration for half-maximal inhibition (IC50) is 100 to 1000 nM against Y641N EZH2 (setting [2]) and below 100 nM on EZH2 (rPRC2) (setting [3]).

`Cc1cc(C)c(CNC(=O)c2c(C)n(C(C)c3cccc(C#N)c3)c3ccccc23)c(=O)[nH]1` (single isomer, unassigned) [Compound 227, (R or S)-1-(1-(3-cyanophenyl)ethyl)-N-((4,6-dimethyl-2-oxo-1,2-dihydropyridin-3-yl)methyl)-2-methyl-1H-indole-3-carboxamide]: the EC50 in test [1] (HeLa, 96 h) lay within 400 to 2000 nM. Further, the 50% inhibitory concentration (IC50) against Y641N EZH2 (setting [2]) and on EZH2 (rPRC2) (setting [3]) was below 100 nM throughout.

Consider `COCC(C)n1c(C)c(C(=O)NCc2c(OC)cc(C)[nH]c2=O)c2cccnc21` (single isomer, unassigned) [Compound 256, (R or S)-N-((4-methoxy-6-methyl-2-oxo-1,2-dihydropyridin-3-yl)methyl)-1-(1-methoxypropan-2-yl)-2-methyl-1H-pyrrolo[2,3-b]pyridine-3-carboxamide], for which the EC50 in test [1] (HeLa, 96 h) was in the range of 400 to 2000 nM. For the same compound, the IC50 is 100 to 1000 nM at Y641N EZH2 (setting [2]) and below 100 nM at EZH2 (rPRC2) (setting [3]).

As a reminder, the EC50 is the midpoint of the concentration-response curve. One may read the IC50 as the concentration at which inhibition is half-maximal.
